Test system: KB cell
Assay: MTS assay, growth inhibition of KB cells
Type: cell-based
Settings: Homo sapiens, at 10 μM concentration, incubated for 72 h, read-out: Inhibition rate (%) (growth inhibition rate of MTS assay)
Method: MTS assay was performed in determining the growth inhibition of cancer cells. MTS ((3-(4,5-dimethylthiazol-2-yl)-5-(3-carboxymethoxyphenyl)-2-(4-sulfophenyl)-2H-tetrazolium)), in the presence of phenazine methosulfate (PMS) and reductases, produces a formazan product that has an absorbance maximum at 490-500 nm. MTS assays (and closely related MTT assay) are commonly used to measure cell viabilities or survivals.
Briefly, KB/Hela, NCI-H460, A375, Colo205, HCT-116, U937, MCF-7, MDA-MB-231, A549, H1975 cells were seeded into 96-well plate at 4000, 4000, 2000, 2000, 2000 cells/well. After 24 h for attachment, test compound was added into each well and incubated for 72 h. A total of 20 μl of MTS reaction reagent containing the MTS (Promega, Madison, Wis.) and PMS in a ratio of 20:1 was added into each well to react with dehydrogenase enzyme in survival cells. After 3 h, the absorbance at 490 nm was monitored using Emax precision microplate reader (Molecular Devices, Sunnyvale, Calif.).
The growth inhibition rate of MTS assay at KB cell of these compounds (at 10 μM concentration) are list in Table 5.

| SMILES | inhibition at 10 µM |
| --- | --- |
| O=C(CCc1ccccc1)Nc1ncc(Cc2ccccc2)s1 [Compound 2, N-(5-Benzyl-thiazol-2-yl)-3-phenyl-propionamide] | 95.5% |
| O=C(/C=C/c1ccccc1)Nc1ncc(Cc2ccccc2)s1 [Compound 3, N-(5-Benzyl-thiazol-2-yl)-3-phenyl-acrylamide] | 94.3% |
| O=C(CCc1ccc(F)cc1)Nc1ncc(Cc2ccc3c(c2)OCO3)s1 [Compound 7, N-(5-Benzo[1,3]dioxol-5-ylmethyl-thiazol-2-yl)-3-(4-fluoro-phenyl)-propionamide] | 91.7% |
| O=C(CCc1cccnc1)Nc1ncc(Cc2ccc3c(c2)OCO3)s1 [Compound 8, N-(5-Benzo[1,3]dioxol-5-ylmethyl-thiazol-2-yl)-3-pyridin-3-yl-propionamide] | 90.6% |
| COc1ccc2cc(Cc3cnc(NC(=O)CCc4ccccc4)s3)ccc2c1 [Compound 14, N-[5-(6-Methoxy-naphthalen-2-ylmethyl)-thiazol-2-yl]-3-phenyl-propionamide] | 89.5% |
| COc1ccc(CCC(=O)Nc2ncc(Cc3ccc(OC)cc3)s2)cc1 [Compound 15, N-[5-(4-Methoxy-benzyl)-thiazol-2-yl]-3-(4-methoxy-phenyl)-propionamide] | 93% |
| COc1ccc(Cc2cnc(NC(=O)CCc3ccncc3)s2)cc1 [Compound 16, N-[5-(4-Methoxy-benzyl)-thiazol-2-yl]-3-pyridin-4-yl-propionamide] | 62% |
| COc1ccc(Cc2cnc(NC(=O)CCc3ccc(F)cc3)s2)cc1OC [Compound 18, N-[5-(3,4-Dimethoxy-benzyl)-thiazol-2-yl]-3-(4-fluoro-phenyl)-propionamide] | 96.6% |
| COc1ccc2cc(Cc3cnc(NC(=O)CCc4ccc(C)o4)s3)ccc2c1 [Compound 19, N-[5-(6-Methoxy-naphthalen-2-ylmethyl)-thiazol-2-yl]-3-(5-methyl-furan-2-yl)-propionamide] | 94.1% |
| COc1ccc(CCC(=O)Nc2ncc(Cc3ccc(OC)c(OC)c3)s2)cc1 [Compound 20, N-[5-(3,4-Dimethoxy-benzyl)-thiazol-2-yl]-3-(4-methoxy-phenyl)-propionamide] | 93.4% |
| Cc1ccc(CCC(=O)Nc2ncc(Cc3ccc4ccccc4c3)s2)o1 [Compound 21, 3-(5-Methyl-furan-2-yl)-N-(5-naphthalen-2-ylmethyl-thiazol-2-yl)-propionamide] | 97.1% |
| O=C(CCc1ccccc1)Nc1ncc(Cc2ccc3ccccc3c2)s1 [Compound 22, N-(5-Naphthalen-2-ylmethyl-thiazol-2-yl)-3-phenyl-propionamide] | 95.6% |
| O=C(CCc1ccc(F)cc1)Nc1ncc(Cc2ccc3ccccc3c2)s1 [Compound 23, 3-(4-Fluoro-phenyl)-N-(5-naphthalen-2-ylmethyl-thiazol-2-yl)-propionamide] | 95.8% |
| O=C(CCc1cccnc1)Nc1ncc(Cc2ccc3ccccc3c2)s1 [Compound 24, N-(5-Naphthalen-2-ylmethyl-thiazol-2-yl)-3-pyridin-3-yl-propionamide] | 95.2% |
| O=C(CCc1ccccc1)Nc1ncc(Cc2ccc(F)c(F)c2)s1 [Compound 25, N-[5-(3,4-Difluoro-benzyl)-thiazol-2-yl]-3-phenyl-propionamide] | 94.2% |
| COc1cccc(CCC(=O)Nc2ncc(Cc3ccc(F)c(F)c3)s2)c1 [Compound 26, N-[5-(3,4-Difluoro-benzyl)-thiazol-2-yl]-3-(3-methoxy-phenyl)-propionamide] | 92.9% |

| SMILES | inhibition at 10 µM |
| --- | --- |
| O=C(CCc1cccnc1)Nc1ncc(Cc2ccc(F)c(F)c2)s1 [Compound 27, N-[5-(3,4-Difluoro-benzyl)-thiazol-2-yl]-3-pyridin-3-yl-propionamide] | 91.2% |
| O=C(CCc1ccc(F)cc1)Nc1ncc(Cc2ccc(F)c(F)c2)s1 [Compound 28, N-[5-(3,4-Difluoro-benzyl)-thiazol-2-yl]-3-(4-fluoro-phenyl)-propionamide] | 95% |
| COc1cccc(CCC(=O)Nc2ncc(Cc3ccc(OC)c(OC)c3)s2)c1 [Compound 29, N-[5-(3,4-Dimethoxy-benzyl)-thiazol-2-yl]-3-(3-methoxy-phenyl)-propionamide] | 96.6% |
| Cc1ccc(CCC(=O)Nc2ncc(Cc3ccc(F)c(F)c3)s2)o1 [Compound 30, N-[5-(3,4-Difluoro-benzyl)-thiazol-2-yl]-3-(5-methyl-furan-2-yl)-propionamide] | 92.3% |
| COc1ccc(Cc2cnc(NC(=O)CCc3ccc(C)o3)s2)cc1OC [Compound 31, N-[5-(3,4-Dimethoxy-benzyl)-thiazol-2-yl]-3-(5-methyl-furan-2-yl)-propionamide] | 95.8% |
| O=C(Nc1ncc(Cc2ccc(F)c(F)c2)s1)OCc1ccccc1 [Compound 32, [5-(3,4-Difluoro-benzyl)-thiazol-2-yl]-carbamic acid benzyl ester] | 52.7% |
| O=C(Nc1ncc(Cc2ccc3c(c2)OCO3)s1)OCc1ccccc1 [Compound 33, (5-Benzo[1,3]dioxol-5-ylmethyl-thiazol-2-yl)-carbamic acid benzyl ester] | 92.4% |
| O=C(CCc1ccccc1)Nc1ncc(Cc2c(F)c(F)c(F)c(F)c2F)s1 [Compound 34, N-(5-Pentafluorophenylmethyl-thiazol-2-yl)-3-phenyl-propionamide] | 92.8% |
| COc1cccc(CCC(=O)Nc2ncc(Cc3c(F)c(F)c(F)c(F)c3F)s2)c1 [Compound 35, 3-(3-Methoxy-phenyl)-N-(5-pentafluorophenylmethyl-thiazol-2-yl)-propionamide] | 90.4% |
| O=C(CCc1cccnc1)Nc1ncc(Cc2c(F)c(F)c(F)c(F)c2F)s1 [Compound 36, N-(5-Pentafluorophenylmethyl-thiazol-2-yl)-3-pyridin-3-yl-propionamide] | 94.3% |
| O=C(CCc1cccc(F)c1)Nc1ncc(Cc2ccc3ccccc3c2)s1 [Compound 37, 3-(3-Fluoro-phenyl)-N-(5-naphthalen-2-ylmethyl-thiazol-2-yl)-propionamide] | 94.4% |
| COc1cccc(CCC(=O)Nc2ncc(Cc3ccc4ccccc4c3)s2)c1 [Compound 38, 3-(3-Methoxy-phenyl)-N-(5-naphthalen-2-ylmethyl-thiazol-2-yl)-propionamide] | 94.2% |
| O=C(CCc1ccc(F)cc1)Nc1ncc(Cc2ccc(-c3ccccc3)cc2)s1 [Compound 39, N-(5-Biphenyl-4-ylmethyl-thiazol-2-yl)-3-(4-fluoro-phenyl)-propionamide] | 94% |
| O=C(CCc1cccnc1)Nc1ncc(Cc2ccc(-c3ccccc3)cc2)s1 [Compound 40, N-(5-Biphenyl-4-ylmethyl-thiazol-2-yl)-3-pyridin-3-yl-propionamide] | 58.8% |
| COc1cc(Cc2cnc(NC(=O)CCc3ccccc3)s2)ccc1OC(=O)OCc1ccccc1 [Compound 41, Carbonic acid benzyl ester 2-methoxy-4-[2-(3-phenyl-propionylamino)-thiazol-5-ylmethyl]-phenyl ester] | 95.8% |
| COc1cc(Cc2cnc(NC(=O)CCc3cccnc3)s2)ccc1OC(=O)OCc1ccccc1 [Compound 42, Carbonic acid benzyl ester 2-methoxy-4-[2-(3-pyridin-3-yl-propionylamino)-thiazol-5-ylmethyl]-phenyl ester] | 91.2% |

From patent US8883793B2, “Tubulin inhibitors and methods of using the same” (Development Center for Biotechnology, priority 2010, dated 2014)
